What was measured:
HiBiT-BRM = target: T1, HiBiT-BRM (Homo sapiens, UniProt P51531); assay: HiBiT-BRM cell-based degradation assay (Nano-Glo HiBiT Lytic Detection); conditions: HeLa cells expressing HiBiT-BRM, 24 h; for DC50: read-out: BRM HiBit Degradation IC50
T1 construct: expressed in transfected cells
Procedure, shortened: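 HeLa cells stably expressing HiBiT-tagged BRM were treated for 24 h, then lysed with LgBiT-containing Nano-Glo reagent and luminescence read. % degradation scaled between DMSO (high control) and 2 μM reference BRM/BRG1 degrader (low control).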

HiBit-BRG1 = target: T2, HiBit-BRG1 (Homo sapiens, UniProt P51532); assay: HiBit-BRG1 cell-based degradation assay (Nano-Glo HiBiT Lytic Detection); conditions: HeLa cells expressing HiBit-BRG1 and LgBit, 24 h; for DC50: read-out: BRG1 HiBit Degradation IC50; for Dmax: read-out: BRG1 HiBit Degradation Maximum (%)
T2 construct: expressed in transfected cells
Procedure, shortened: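 Stable HeLa line co-expressing HiBit-BRG1 and LgBit, 5000 cells/well, treated 24 h in a tissue culture incubator. Lysed with Nano-Glo HiBiT lytic reagent, luminescence read. % degradation normalized to DMSO (high control) and 2 μM reference BRM/BRG1 degrader (low control).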

T1 sequence (P51531 whole entry): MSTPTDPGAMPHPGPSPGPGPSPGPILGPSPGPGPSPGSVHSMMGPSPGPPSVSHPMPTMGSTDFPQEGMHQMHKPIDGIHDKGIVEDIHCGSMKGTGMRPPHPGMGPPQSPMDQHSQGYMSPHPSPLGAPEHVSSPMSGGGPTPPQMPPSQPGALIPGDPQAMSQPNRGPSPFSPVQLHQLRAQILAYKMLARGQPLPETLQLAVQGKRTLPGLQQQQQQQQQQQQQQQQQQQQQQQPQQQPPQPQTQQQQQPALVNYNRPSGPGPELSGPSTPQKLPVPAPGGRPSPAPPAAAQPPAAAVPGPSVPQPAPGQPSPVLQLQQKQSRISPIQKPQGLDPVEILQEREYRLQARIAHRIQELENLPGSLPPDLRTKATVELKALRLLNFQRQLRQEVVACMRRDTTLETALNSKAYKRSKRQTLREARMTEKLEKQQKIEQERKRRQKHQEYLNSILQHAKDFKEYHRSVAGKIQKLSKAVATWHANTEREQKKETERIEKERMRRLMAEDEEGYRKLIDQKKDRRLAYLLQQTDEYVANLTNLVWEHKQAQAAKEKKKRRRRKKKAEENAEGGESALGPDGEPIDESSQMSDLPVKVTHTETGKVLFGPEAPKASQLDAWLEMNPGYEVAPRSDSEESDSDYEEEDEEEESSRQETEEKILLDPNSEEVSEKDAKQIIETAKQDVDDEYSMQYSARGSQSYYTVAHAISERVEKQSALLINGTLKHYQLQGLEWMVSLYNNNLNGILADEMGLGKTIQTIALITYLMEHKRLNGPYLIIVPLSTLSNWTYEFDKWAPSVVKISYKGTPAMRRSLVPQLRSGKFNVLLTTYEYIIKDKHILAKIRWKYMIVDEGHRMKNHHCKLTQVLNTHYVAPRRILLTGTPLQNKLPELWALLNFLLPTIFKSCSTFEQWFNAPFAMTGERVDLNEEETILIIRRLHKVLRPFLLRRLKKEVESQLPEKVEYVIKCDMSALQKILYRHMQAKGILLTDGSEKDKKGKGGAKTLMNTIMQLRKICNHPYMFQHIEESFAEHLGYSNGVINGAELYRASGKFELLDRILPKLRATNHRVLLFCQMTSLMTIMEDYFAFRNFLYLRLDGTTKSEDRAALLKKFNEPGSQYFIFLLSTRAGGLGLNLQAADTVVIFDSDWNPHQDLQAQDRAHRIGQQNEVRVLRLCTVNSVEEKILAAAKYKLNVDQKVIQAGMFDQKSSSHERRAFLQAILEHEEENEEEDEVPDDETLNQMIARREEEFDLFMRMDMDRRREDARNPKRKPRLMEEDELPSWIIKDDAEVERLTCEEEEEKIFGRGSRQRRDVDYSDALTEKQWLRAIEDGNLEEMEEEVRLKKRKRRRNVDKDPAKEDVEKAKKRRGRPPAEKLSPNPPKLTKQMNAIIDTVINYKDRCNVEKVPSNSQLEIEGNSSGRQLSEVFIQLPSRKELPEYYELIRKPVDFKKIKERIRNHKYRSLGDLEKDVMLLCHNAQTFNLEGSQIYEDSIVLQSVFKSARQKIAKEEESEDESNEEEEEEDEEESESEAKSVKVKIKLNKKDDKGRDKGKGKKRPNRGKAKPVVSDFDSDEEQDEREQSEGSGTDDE
T2 sequence (P51532 whole entry): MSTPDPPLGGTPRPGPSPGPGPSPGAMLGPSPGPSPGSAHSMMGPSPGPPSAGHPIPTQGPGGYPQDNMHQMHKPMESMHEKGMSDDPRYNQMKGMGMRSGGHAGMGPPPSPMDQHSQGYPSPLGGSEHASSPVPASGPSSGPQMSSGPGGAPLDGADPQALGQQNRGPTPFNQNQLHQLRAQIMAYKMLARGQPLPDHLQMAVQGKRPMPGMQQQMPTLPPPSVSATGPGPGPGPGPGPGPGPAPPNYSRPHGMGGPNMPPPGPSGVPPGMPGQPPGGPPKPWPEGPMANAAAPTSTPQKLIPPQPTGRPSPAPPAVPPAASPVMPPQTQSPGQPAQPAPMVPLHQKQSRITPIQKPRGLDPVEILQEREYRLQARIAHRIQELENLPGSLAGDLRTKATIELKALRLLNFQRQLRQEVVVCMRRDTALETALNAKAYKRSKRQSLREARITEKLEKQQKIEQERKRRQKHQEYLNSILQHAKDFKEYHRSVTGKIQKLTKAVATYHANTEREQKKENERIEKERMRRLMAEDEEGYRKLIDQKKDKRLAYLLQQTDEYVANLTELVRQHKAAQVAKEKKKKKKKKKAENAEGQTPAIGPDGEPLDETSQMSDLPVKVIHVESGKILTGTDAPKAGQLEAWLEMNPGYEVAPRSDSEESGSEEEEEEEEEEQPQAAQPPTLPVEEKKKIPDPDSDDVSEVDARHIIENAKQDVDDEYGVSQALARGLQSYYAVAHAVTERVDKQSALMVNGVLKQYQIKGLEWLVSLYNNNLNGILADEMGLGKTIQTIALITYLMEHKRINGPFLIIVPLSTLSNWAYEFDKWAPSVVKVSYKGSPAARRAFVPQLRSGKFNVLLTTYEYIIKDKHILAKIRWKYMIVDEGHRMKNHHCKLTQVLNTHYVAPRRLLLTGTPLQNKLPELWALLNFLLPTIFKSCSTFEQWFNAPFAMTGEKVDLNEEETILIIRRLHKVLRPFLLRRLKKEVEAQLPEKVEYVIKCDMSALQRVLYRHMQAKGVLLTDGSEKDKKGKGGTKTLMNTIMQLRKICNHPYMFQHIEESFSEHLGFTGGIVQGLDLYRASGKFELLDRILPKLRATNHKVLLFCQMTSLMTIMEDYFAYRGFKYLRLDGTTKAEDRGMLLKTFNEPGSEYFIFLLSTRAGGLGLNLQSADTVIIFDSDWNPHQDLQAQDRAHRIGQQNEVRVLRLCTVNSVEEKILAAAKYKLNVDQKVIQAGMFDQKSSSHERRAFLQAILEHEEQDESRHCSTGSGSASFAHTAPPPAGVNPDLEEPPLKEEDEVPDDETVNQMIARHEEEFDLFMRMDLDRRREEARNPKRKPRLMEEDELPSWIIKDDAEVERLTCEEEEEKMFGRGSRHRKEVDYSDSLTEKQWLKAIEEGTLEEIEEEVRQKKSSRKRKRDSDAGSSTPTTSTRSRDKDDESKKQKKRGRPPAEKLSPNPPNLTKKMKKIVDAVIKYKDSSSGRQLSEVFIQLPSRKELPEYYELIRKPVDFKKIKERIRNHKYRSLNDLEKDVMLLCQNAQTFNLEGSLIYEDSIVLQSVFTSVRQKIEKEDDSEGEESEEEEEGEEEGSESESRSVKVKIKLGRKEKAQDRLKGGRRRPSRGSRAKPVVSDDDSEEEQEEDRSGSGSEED

| SMILES | BRM HiBit Degradation Maximum (%) (HiBiT-BRM) | DC50 (HiBiT-BRM) [nM] | DC50 (HiBit-BRG1) [nM] | Dmax (HiBit-BRG1) [%] |
| --- | --- | --- | --- | --- |
| Cc1ncsc1-c1ccc(CNC(=O)[C@@H]2C[C@@H](O)CN2C(=O)[C@@H](NC(=O)CCN2[C@@H]3CC[C@H]2CN(C(=O)c2ccc(CCOc4cc(-c5ccccc5O)nnc4N)cc2)C3)C(C)(C)C)cc1 [Compound 216, (2S,4R)-1-((2S)-2-(3-(3-(4-(2-((3-amino-6-(2-hydroxyphenyl)pyridazin-4-yl)oxy)ethyl)benzoyl)-3,8-diazabicyclo[3.2.1]octan-8-yl)propanamido)-3,3-dimethylbutanoyl)-4-hydroxy-N-(4-(4-methylthiazol-5-yl)benzyl)pyrrolidine-2-carboxamide] | C (“C” indicates maximum degradation <50%) | > 1000 | > 1000 | < 50 |
| Cc1ncsc1-c1ccc(CNC(=O)[C@@H]2C[C@@H](O)CN2C(=O)[C@@H](NC(=O)CCCN2CCN(CCOc3cc(N4[C@@H]5CC[C@H]4CN(c4cc(-c6ccccc6O)nnc4N)C5)ccn3)CC2)C(C)(C)C)cc1 [Compound 242, (2S,4R)-1-((2S)-2-(4-(4-(2-((4-(3-(3-amino-6-(2-hydroxyphenyl)pyridazin-4-yl)-3,8-diazabicyclo[3.2.1]octan-8-yl)pyridin-2-yl)oxy)ethyl)piperazin-1-yl)butanamido)-3,3-dimethylbutanoyl)-4-hydroxy-N-(4-(4-methylthiazol-5-yl)benzyl)pyrrolidine-2-carboxamide] | A (“A” indicates maximum degradation ≥75%) | > 100 | > 1000 | < 50 |
| Cc1ncsc1-c1ccc([C@H](C)NC(=O)[C@@H]2C[C@@H](O)CN2C(=O)[C@@H](c2cc(OCCN3CCC4(CC3)CCN(C(=O)c3ccc(CCOc5cc(-c6ccccc6O)nnc5N)cc3)CC4)no2)C(C)C)cc1 [Compound 209, (2S,4R)-1-[(2R)-2-[3-(2-[9-[4-(2-[[3-amino-6-(2-hydroxyphenyl)pyridazin-4-yl]oxy]ethyl)benzoyl]-3,9-diazaspiro[5.5]undecan-3-yl]ethoxy)-1,2-oxazol-5-yl]-3-methylbutanoyl]-4-hydroxy-N-[(1S)-1-[4-(4-methyl-1,3-thiazol-5-yl)phenyl]ethyl]pyrrolidine-2-carboxamide] | A (“A” indicates maximum degradation ≥75%) | > 10 | > 100 | > 75 |
| Nc1nnc(-c2ccccc2O)cc1OCCc1ccc(CNCCN2CC3CC2CN3c2cccc3c2C(=O)N(C2CCC(=O)NC2=O)C3=O)cc1 (stereo not drawn) [Compound 158, 4-(5-(2-((4-(2-((3-amino-6-(2-hydroxyphenyl)pyridazin-4-yl)oxy)ethyl)benzyl)amino)ethyl)-2,5-diazabicyclo[2.2.1]heptan-2-yl)-2-(2,6-dioxopiperidin-3-yl)isoindoline-1,3-dione] | B (“B” indicates maximum degradation ≥50%) | > 100 | > 100 | > 50 |
| Nc1nnc(-c2ccccc2O)cc1OCCc1ccc(C(=O)NCCCCCNc2cccc3c2C(=O)N(C2CCC(=O)NC2=O)C3=O)cc1 (stereo not drawn) [Compound 50, 4-(2-((3-amino-6-(2-hydroxyphenyl)pyridazin-4-yl)oxy)ethyl)-N-(5-((2-(2,6-dioxopiperidin-3-yl)-1,3-dioxoisoindolin-4-yl)amino)pentyl)benzamide] | C (“C” indicates maximum degradation <50%) | > 1000 | > 1000 | < 50 |
| Nc1nnc(-c2ccccc2O)cc1NCCc1ccc(CNC(=O)CCCCNc2cccc3nnn(C4CCC(=O)NC4=O)c(=O)c23)cc1 (stereo not drawn) [Compound 141, N-(4-(2-((3-amino-6-(2-hydroxyphenyl)pyridazin-4-yl)amino)ethyl)benzyl)-5-((3-(2,6-dioxopiperidin-3-yl)-4-oxo-3,4-dihydrobenzo[d][1,2,3]triazin-5-yl)amino)pentanamide] | C (“C” indicates maximum degradation <50%) | > 1000 | > 1000 | < 50 |

Source: patent US20230150974A1 (Foghorn Therapeutics Inc., priority 2020, published 2023)
